Data as given in US20080146502A1, “Methods for modulating the sensation of satiety perception and agents useful for same” (Autogen Research Pty Ltd., priority 2004, published 2008).
Values after ≈ are worked out from the molar mass of the structure shown.

Legend:
[1] = test system: TRPV channels; conditions: cited from earlier work
[2] = test system: food intake in rats; assay: Food intake in fasted rats after single intragastric gavage; type: in vivo; conditions: for Food Intake: 5 mg/kg in saline, mean ± sem
Experimental: Adult, male rats were fasted for 16 hours then administered with a single intragastric gavage of 1-[beta-[3-(4-Methoxyphenyl)propoxy]-4-methoxyphenethyl]-1H-imidazole.HCl at a dose of 5 mg/kg in saline in a volume of 0.5 ml, or saline alone (0.5 ml). There were 8 animals in each group. Food intake was measured at various timepoints over the following 24 hours.

[3] = test system: receptor-mediated Ca^2+ entry in stimulated platelets; conditions: cited from earlier work
[4] = test system: receptor-mediated Ca^2+ entry in neutrophils; conditions: cited from earlier work
[5] = test system: receptor-mediated Ca^2+ entry in endothelial cells; conditions: cited from earlier work
[6] = cited from earlier work

N.N.N.N.N.N.N.N.N.N.N.N.N.N.[Cl-].[Cl-].[Cl-].[Cl-].[Cl-].[Cl-].[O-2].[O-2].[Ru+3].[Ru+3].[Ru+4] [Ruthenium Red]
block of TRPV channels [1]: blocks all TRPV channels

COc1ccc(CCCOC(Cn2ccnc2)c2ccc(OC)cc2)cc1 (stereo not drawn) [1-[β-[3-(4-methoxyphenyl)propoxy]-4-methoxyphenethyl]-1H-imidazole]
food intake, trend vs saline ([2]; 5 mg/kg gavage, after 3 h, 5 h, 6 h, 8 h, 9 h, 10 h and 24 h, p<0.10): strong trends for reduced food intake | Food Intake ([2]; 0.5 h after single intragastric gavage, rats fasted 16 h): 2.4 ± 0.3 g | Food Intake ([2]; 1 h after single intragastric gavage, rats fasted 16 h): 2.8 ± 0.3 g | Food Intake ([2]; 2 h after single intragastric gavage, rats fasted 16 h): 2.9 ± 0.3 g | Food Intake ([2]; 3 h after single intragastric gavage, rats fasted 16 h): 3.8 ± 0.4 g | Food Intake ([2]; 4 h after single intragastric gavage, rats fasted 16 h): 4.9 ± 0.5 g | Food Intake ([2]; 5 h after single intragastric gavage, rats fasted 16 h): 5.1 ± 0.5 g | Food Intake ([2]; 6 h after single intragastric gavage, rats fasted 16 h): 6.3 ± 0.5 g | Food Intake ([2]; 7 h after single intragastric gavage, rats fasted 16 h): 7.4 ± 0.6 g | Food Intake ([2]; 8 h after single intragastric gavage, rats fasted 16 h): 8.2 ± 0.6 g | Food Intake ([2]; 9 h after single intragastric gavage, rats fasted 16 h): 9.3 ± 0.6 g | Food Intake ([2]; 10 h after single intragastric gavage, rats fasted 16 h): 10.3 ± 0.6 g | Food Intake ([2]; 11 h after single intragastric gavage, rats fasted 16 h): 11.5 ± 0.6 g | Food Intake ([2]; 12 h after single intragastric gavage, rats fasted 16 h): 12.4 ± 0.6 g | Food Intake ([2]; 24 h after single intragastric gavage, rats fasted 16 h): 18.4 ± 0.8 g | food intake over the period of the study ([2]; rats fasted 16 h, 5 mg/kg single intragastric gavage in saline vs saline alone, 24 h): reduced food intake over the period of the study | IC50 [3]: 8 to 12 µM | inhibition of receptor-mediated Ca^2+ entry [4]: selective inhibitor | inhibition of receptor-mediated Ca^2+ entry [5]: selective inhibitor | Solubility in water [6]: 30 mg/mL (≈ 81.9 mM)
